Measured values: publication PMC12073635, “Synthesis of Tricyclic and Tetracyclic Lactone Derivatives of Thieno[2,3-b]pyrazine or Thieno[2,3-b]quinoline: Preliminary Antitumor and Antiparasitic Activity Evaluation” (Molecules, 2025)

How the values were obtained:
[1] = system: MCF-7 (breast adenocarcinoma) cells; test: SRB cell growth inhibition assay, MCF-7; assay type: cell-based, human; details: Homo sapiens, MCF7, 72 h, mean ± standard deviation
Procedure: (§1) The antitumor potential of the Sonogashira coupling products 2, tricyclic lactones 3 and 5, and tetracyclic lactones 7 was evaluated using the sulforhodamine B (SRB) assay against five human tumor cell lines: colorectal adenocarcinoma (CaCo-2), breast adenocarcinoma (MCF-7), gastric adenocarcinoma (AGS), cervical carcinoma (HeLa), and non-small cell lung cancer (NCI-H460). A primary pig liver cell culture (PLP2) was used to assess the toxicity of compounds.
(§2) The human tumor cell lines used were CaCo-2 (colorectal adenocarcinoma), MCF-7 (breast adenocarcinoma), AGS (gastric adenocarcinoma), HeLa (cervical carcinoma), NCI-H460 (lung carcinoma). Non-tumor cell lines were also tested: PLP2 (primary pig liver culture). All the cell lines were maintained in RPMI-1640 medium supplemented with 10% fetal bovine serum, glutamine (2 mM), penicillin (100 U/mL), and streptomycin ([…]), with the exception of PLP2, which was maintained in DMEM medium supplemented with fetal bovine serum (10%), glutamine and antibiotics. The culture flasks were incubated at 37 °C and with 5% CO2, under a humid atmosphere. The cells were used only when they had 70 to 80% confluence. A known mass of each compound was dissolved in DMSO/H2O (1:1, 1 mL), in order to obtain the stock solutions with a concentration of 1 mM. […] Each compound concentration (10 μL) was incubated with the cell suspension (190 μL) of the cell lines tested in 96-well microplates for 72 h. The microplates were incubated at 37 °C and with 5% CO2 in a humid atmosphere after checking the adherence of the cells. All cell lines were tested at a concentration of 10,000 cells/well. After the incubation period, the cells were treated: TCA (10% w/v; 100 μL) was previously cooled, and plates were incubated for 1 h at 4 °C, washed with water, and, after drying, a SRB solution (0.057%, m/v; 100 μL) was added and left to stand at room temperature for 30 min. To remove non-adhered SRB, plates were washed three times with a solution of acetic acid (1% v/v) and placed to dry. Finally, an adhered SRB was solubilized with Tris (10 mM, 200 μL) and the absorbance at a wavelength of 540 nm was read in the Biotek ELX800 microplate reader. The results obtained by the SRB assay were expressed regarding the concentration compounds that can inhibit cell growth by 50%—GI50. Doxorubicin was used as a positive control.

[2] = system: NCI-H460 (non-small cell lung cancer) cells; test: SRB cell growth inhibition assay, NCI-H460; assay type: cell-based; details: Homo sapiens, 72 h, mean ± standard deviation
Procedure: as §1, §2

[3] = MTT cytotoxicity in THP-1-derived macrophages; assay type: cell-based, human; details: human, THP-1-derived macrophages (PMA-differentiated); MTT, 72 h, tested 100 to 12.5 μM; read-out: CC50 Interval in THP-1-Derived Macrophages
Procedure: Human leukemia cell line, THP-1 (ATCC® TIB-202™, Manassas, VA, USA) was cultured in RPMI-1640 medium supplemented with 10% heat-inactivated Fetal Bovine Serum (FBS), 2 mM L-glutamine, 100 UI/mL penicillin/streptomycin, 20 mM HEPES. The cell line was maintained in a humidified incubator at 37 °C and 5% CO2 by subculture every three days in 20 mL of media at a concentration of 1 × 10^5/mL in a T75 flask. All cell culture reagents were purchased from Lonza-Bioscience (Morrisville, NC, USA).
The cytotoxicity effect of compounds on THP-1-derived macrophages was assessed by the colorimetric MTT assay (3-(4,5-dimethylthiazol-2-yl)-2,5-diphenyl tetrazolium bromide). Briefly, THP-1 cells were suspended in RPMI complete medium at a density of 1 × 10^6 cells/mL and 100 μL/well were seeded in a 96-well plate and were differentiated into macrophages by addition of 40 ng/mL of phorbol-myristate 13-acetate (PMA, Sigma, Saint Louis, MI, USA) for 24 h followed by replacement with fresh medium for more 24 h. Subsequently, cells were incubated with 100 μL of compounds ranging from 100 to 12.5 μM after dilution in the RPMI complete medium. Each condition was carried out in quadruplicate. After 72 h of incubation at 37 °C 5% CO2, the medium was removed and 200 μL of 0.5 mg/mL MTT solution diluted in RPMI was added. Plates were incubated for an additional 4 h. Then 160 μL of media was removed and the same volume of 2-propanol was added. Absorbance was read at 570 nm using a Synergy 2 Multi-Mode Reader (Biotek, Winooski, VT, USA). Cytotoxicity was evaluated by the determination of the CC50 value (drug concentration that reduced the percentage of viable cells in 50%) and calculated by non-linear regression analysis using GraphPad Prism version 8.1.1 for Windows (GraphPad Software, San Diego, CA, USA). The results represent the average of at least three independent experiments. For each compound, the Selectivity Index (SI) was calculated as the ratio between cytotoxicity in THP-1 (CC50, 72 h) and activity against parasites (IC50, 72 h).

[4] = system: AGS (gastric adenocarcinoma) cells; test: SRB cell growth inhibition assay, AGS; assay type: cell-based; details: Homo sapiens, 72 h, mean ± standard deviation
Procedure: as §1, §2

[5] = system: L. infantum MHOM/MA/67/ITMAP-263 promastigotes; test: Resazurin-based assay against L. infantum promastigotes; assay type: cell-based, Leishmania infantum; details: 72 h; for L. infantum % of Activity ± ST.DEV (Single Dose 20 μM): single dose 20 μM, no activity = less than 20%; for IC50: Leishmania infantum, dose-response
Procedure: (§3) The antiparasitic activity of compounds 2c–g, 3a, 5a and 7 was evaluated at a single concentration of 20 μM, against Trypanosoma brucei (T. brucei) and Leishmania infantum (L. infantum) promastigotes. The results are shown in Table 9 together with the cytotoxicity data (CC50) in THP-1–derived macrophages cells.
L. infantum MHOM/MA/67/ITMAP-263 promastigotes forms were grown at 27 °C, in complete RPMI-1640 medium supplemented with 10% heat-inactivated Fetal Bovine Serum (FBS), 2 mM L-glutamine, 100 UI/mL penicillin/streptomycin, 20 mM HEPES. Parasites maintenance was performed in T25 non-ventilated flasks by subpassage at a concentration of 1 × 10^6/mL every 5 days on T25 non-ventilated flasks.
The compounds’ efficacy against L. infantum promastigotes was evaluated using a resazurin-based assay. Parasites were added to 100 µL of serial dilutions of compounds in supplemented complete medium at a cell density of 5 × 10^5/mL. As a quality control, a dose–response curve to the antileishmanial drug miltefosine was included in all the assays. The final volume of the assay was 200 µL/well. Each condition was carried out in duplicate. Following 72 h of incubation at the specific conditions for L. infantum, 20 µL of a 0.5 mM resazurin solution was added, and the plates were incubated for a further 4 h under the same conditions. The methodology to obtain the results was the same described in Section 3.2.2. for T. brucei.

[6] = SRB assay, toxicity in non-tumor PLP2 cells; assay type: cell-based, pig; details: PLP2 primary pig liver cells (non-tumor); non-tumor primary pig liver cells, SRB assay, 72 h, mean ± standard deviation
Procedure: as §1, §2

[7] = system: T. brucei Lister 427 bloodstream forms; test: Resazurin-based anti-T. brucei assay; assay type: cell-based, Trypanosoma brucei; details: single dose 20 μM, 72 h; no activity = less than 20%
Procedure: as §3
T. brucei Lister 427 bloodstream forms were grown in a humidified incubator at 37 °C, 5% CO2 in complete HMI-9 medium 1 supplemented with 10% heat-inactivated Fetal Bovine Serum (FBS) and 100 UI/mL penicillin/streptomycin. Parasites maintenance was performed in T25 ventilated flasks by subpassage at a concentration of 1 × 10^4/mL every 2 days on T25 ventilated flasks.
The efficacy of compounds against T. brucei bloodstream forms was evaluated using a modified resazurin-based assay previously described in the literature. Parasites were added to 100 µL of serial dilutions of compounds in supplemented complete medium at a cell density of 5 × 10^3/mL for. As a quality control, a dose–response curve for the antitrypanosomal pentamidine was included in all the assays. The final volume of the assay is 200 µL/well. Each condition was carried out in duplicate. Following 72 h incubation at the specific conditions for T. brucei, 20 µL of a 0.5 mM resazurin solution was added and plates were incubated for a further 4 h under the same conditions. Fluorescence was measured at 544 nm and 590 nm excitation and emission wavelength, respectively, using a Synergy 2 Multi-Mode Reader (Biotek, Winooski, VT, USA). Results were shown as % of parasite growth inhibition compared to control (untreated parasites) and represent the average of at least three independent experiments. The effect was evaluated by the determination of the IC50 value (concentration required to inhibit growth in 50%) and calculated by non-linear regression curves using GraphPad Prism version 8.1.1 for Windows (GraphPad Software, San Diego CA, USA).

[8] = system: HeLa (cervical carcinoma) cells; test: SRB cell growth inhibition assay, HeLa; assay type: cell-based; details: Homo sapiens, 72 h, mean ± standard deviation
Procedure: as §1, §2

[9] = system: CaCo-2 (colorectal adenocarcinoma) cells; test: SRB cell growth inhibition assay, CaCo-2; assay type: cell-based, human; details: Homo sapiens, Caco-2, 72 h, mean ± standard deviation
Procedure: as §1, §2

Row | SMILES | GI50 [1] | GI50 [2] | CC50 at 72 h [3] | GI50 [4] | L. infantum % of Activity ± ST.DEV (Single Dose 20 μM) [5] | GI50 at 72 h [6] | T. brucei % of Activity ± ST.DEV (Single Dose 20 μM) [7] | GI50 [8] | GI50 [9] | IC50 [5]
1 | COC(=O)c1sc2nccnc2c1C#Cc1ccc(F)cc1 [Compound 2c, Methyl 7-[(4-fluorophenyl)ethynyl]-thieno[2,3-b]pyrazine-6-carboxylate] | 51.8 ± 1.07 µM | 67.2 ± 3.05 µM | > 100 µM | 70.7 ± 4.72 µM | no activity * | > 125 µM | no activity * | 48.3 ± 1.66 µM | 52.1 ± 0.89 µM | 
2 | COC(=O)c1sc2nccnc2c1C#Cc1ccc(OC)cc1 [Compound 2d, Methyl 7-[(4-methoxyphenyl)ethynyl]thieno[2,3-b]pyrazine-6-carboxylate] | 67.9 ± 2.47 µM | 82.5 ± 5.35 µM | > 100 µM | 59.3 ± 1.97 µM | no activity * | > 125 µM | no activity * | 62.3 ± 2.98 µM | 79.5 ± 3.58 µM | 
3 | COC(=O)c1sc2nccnc2c1C#Cc1ccc(C)cc1 [Compound 2e, Methyl 7-(p-tolylethynyl)thieno[2,3-b]pyrazine-6-carboxylate] | 95.8 ± 8.08 µM | 102 ± 8.13 µM | > 100 µM | 89.2 ± 5.33 µM | no activity * | > 125 µM |  | 76.9 ± 6.55 µM | 93 ± 7.23 µM | 
4 | COC(=O)c1sc2nccnc2c1C#Cc1ccsc1 [Compound 2g, Methyl 7-(thiophen-3-ylethynyl)thieno[2,3-b]pyrazine-6-carboxylate] | 60 ± 3.19 µM | 62.1 ± 3.05 µM | > 100 µM | 46.1 ± 1.77 µM | no activity * | 90.5 ± 6.47 µM | no activity * | 36.4 ± 2.85 µM | 30.7 ± 2.35 µM | 
5 | O=c1oc(-c2ccccc2)c(-c2ccccc2)c2c1sc1nc3ccccc3cc12 [Compound 7a, 3,4-Diphenyl-1H-pyrano[4′,3′:4,5]thieno[2,3-b]quinolin-1-one] | 97.9 ± 6.31 µM | 93.9 ± 3.18 µM | < 12.5 µM | 93.5 ± 5.37 µM | no activity * | > 125 µM |  | 78.9 ± 6.06 µM | 75 ± 4.49 µM | 
6 | CCCCc1oc(=O)c2sc3nc4ccccc4cc3c2c1CCCC [Compound 7b, 3,4-Dibutyl-1H-pyrano[4′,3′:4,5]thieno[2,3-b]quinolin-1-one] | 101 ± 7.33 µM | 109 ± 9.16 µM | 12.5 to 50 µM | 99.8 ± 4.94 µM |  | > 125 µM | no activity * | 82.8 ± 8.02 µM | 91.1 ± 2.46 µM | 19 µM
7 | O=c1oc(-c2ccc(C(F)(F)F)cc2)c(-c2ccc(C(F)(F)F)cc2)c2c1sc1nc3ccccc3cc12 [Compound 7e, 3,4-Bis(4-(trifluoromethyl)phenyl)-1H-pyrano[4’,3’:4,5]thieno[2,3-b]quinolin-1-one] |  |  | 25 to 50 µM |  | no activity * |  | no activity * |  |  | 
8 | N=C(N)c1ccc(OCCCCCOc2ccc(C(=N)N)cc2)cc1 [Pentamidine, pentamidine, reference compound] |  |  |  |  |  |  |  |  |  | 2.94 µM
